Legend:
[1] = tested on: Phakopsora pachyrhizi (F129L); assay: Protective control of soybean rust on soybeans (PHAKPA P2); type: in vivo; details: for PHAKPA (F129L) Disease level (%) P2 at 16 ppm / PHAKPA (F129L) Disease level (%) P2 at 4 ppm: P2 protective, % diseased leaf area; for % PHAKPA (F129L) Disease level P2 at 4 ppm: protective P2, 4 ppm; for % PHAKPA (F129L) Disease level P2 at 4 ppm / % PHAKPA (F129L) Disease level P2 at 16 ppm: soybean rust F129L; for % PHAKPA (F129L) Disease level P2 at 16 ppm: protective P2, 16 ppm
[2] = tested on: Phakopsora pachyrhizi (F129L); assay: Protective control of soybean rust on soybeans (PHAKPA P6); type: in vivo; details: for PHAKPA (F129L) Disease level (%) P6 at 16 ppm / PHAKPA (F129L) Disease level (%) P6 at 4 ppm: P6 protective, % diseased leaf area; for % PHAKPA (F129L) Disease level P6 at 4 ppm: protective P6, 4 ppm; for % PHAKPA (F129L) Disease level P6 at 4 ppm / % PHAKPA (F129L) Disease level P6 at 16 ppm: soybean rust F129L; for % PHAKPA (F129L) Disease level P6 at 16 ppm: protective P6, 16 ppm

| SMILES | PHAKPA (F129L) Disease level (%) P2 at 16 ppm [1] | % PHAKPA (F129L) Disease level P2 at 4 ppm [1] | % PHAKPA (F129L) Disease level P2 at 16 ppm [1] | PHAKPA (F129L) Disease level (%) P6 at 16 ppm [2] | % PHAKPA (F129L) Disease level P6 at 4 ppm [2] | % PHAKPA (F129L) Disease level P6 at 16 ppm [2] | PHAKPA (F129L) Disease level (%) P2 at 4 ppm [1] | PHAKPA (F129L) Disease level (%) P6 at 4 ppm [2] |
| --- | --- | --- | --- | --- | --- | --- | --- | --- |
| CO/N=C(/C(=O)OC)c1cccc(C)c1CO/N=C(\C)c1ccccc1F [Ex. 1, Methyl (2E)-2-[2-[[(E)-3-(2-fluorophenyl)ethylideneamino]oxymethyl]-3-methyl-phenyl]-2-methoxyimino-acetate] | 28% | 80% | 27% | 47% | 90% | 56% | – | – |
| CNC(=O)/C(=N/OC)c1cccc(C)c1CO/N=C(\C)c1ccccc1F [Ex. 2, (2E)-2-[2-[[(E)-1-(2-fluorophenyl)ethylideneamino]oxymethyl]-3-methyl-phenyl]-2-methoxyimino-N-methyl-acetamide] | – | 5% | 0% | – | 26% | 1% | – | – |
| CO/N=C(/C(=O)OC)c1cccc(C)c1CO/N=C(\C)c1cc(Cl)cc(Cl)c1 [Ex. 3, Methyl (2E)-2-[2-[[(E)-1-(3,5-dichlorophenyl)ethylideneamino]oxymethyl]-3-methyl-phenyl]-2-methoxyimino-acetate] | 2% | 30% | 3% | 1% | 40% | 6% | – | – |
| CNC(=O)/C(=N/OC)c1cccc(C)c1CO/N=C(\C)c1cc(Cl)cc(Cl)c1 [Ex. 4, (2E)-2-[2-[[(E)-1-(3,5-dichlorophenyl)ethylideneamino]oxymethyl]-3-methyl-phenyl]-2-methoxyimino-N-methyl-acetamide] | – | 2% | 0% | – | 13% | 1% | 2% | 17% |
| CO/N=C(/C(=O)OC)c1cccc(C)c1CO/N=C(\C)c1ccc(C)cc1 [Ex. 5, Methyl (2E)-2-methoxyimino-2-[3-methyl-2-[[(E)-1-(p-tolyl)ethylideneamino]oxymethyl]phenyl]acetate] | 1% | 28% | 1% | 4% | 50% | 4% | – | – |
| CNC(=O)/C(=N/OC)c1cccc(C)c1CO/N=C(\C)c1ccc(C)cc1 [Ex. 6, (2E)-2-Methoxyimino-N-methyl-2-[3-methyl-2-[[(E)-1-(p-tolyl)ethylideneamino]oxymethyl]phenyl]acetamide] | – | 1% | 0% | – | 19% | 1% | 0% | 23% |
| CO/N=C(/C(=O)OC)c1cccc(C2CC2)c1CO/N=C(\C)c1cccc(C(F)(F)F)c1 [Ex. 10] | – | 22% | 2% | – | 45% | 3% | – | – |
| CNC(=O)/C(=N/OC)c1cccc(C2CC2)c1CO/N=C(\C)c1cccc(C(F)(F)F)c1 [Ex. 11] | – | 23% | 1% | – | 20% | 0% | – | – |
| CNC(=O)/C(=N/OC)c1cccc(C)c1CO/N=C(\C)c1cccc(C(F)F)c1 [Ex. 12] | 3% | 25% | 1% | 9% | 37% | 9% | – | – |
| C=Cc1cccc(/C(=N\OC)C(=O)OC)c1CO/N=C(\C)c1cccc(C(F)(F)F)c1 [Ex. 13] | – | 28% | 0% | – | 25% | 0% | – | – |
| CNC(=O)/C(=N/OC)c1cccc(C)c1CO/N=C(\C)c1cccc(/C(C)=N/OC)c1 [Ex. 15] | – | 4% | 0% | – | 24% | 1% | – | – |
| CO/N=C(/C(=O)OC)c1cccc(C)c1CO/N=C(/c1ccc(Cl)cc1)C(F)F [Ex. 20] | – | 73% | 29% | – | 97% | 18% | – | – |
| CO/N=C(/C(=O)OC)c1cccc(C)c1CO/N=C(/c1ccc(F)cc1)C(F)F [Ex. 21] | – | 100% | 77% | – | 97% | 88% | – | – |
| CNC(=O)/C(=N/OC)c1cccc(C(F)F)c1CO/N=C(\C)c1cccc(C(F)(F)F)c1 [Ex. 23] | – | 12% | 1% | – | 20% | 1% | – | – |
| CO/N=C(/C(=O)OC)c1cccc(C(F)F)c1CO/N=C(\C)c1cccc(C(F)(F)F)c1 [Ex. 24] | – | 36% | 60% | – | 4% | 28% | – | – |
| CNC(=O)/C(=N/OC)c1cccc(C)c1CO/N=C(/c1ccc(F)cc1)C(F)F [Ex. 27] | 0% | 5% | 0% | 0% | 32% | 0% | – | – |
| CO/N=C(/C(=O)OC)c1cccc(C)c1CO/N=C(\C)c1cccc(OC(F)(F)F)c1 [Ex. 28] | 30% | – | 0% | 18% | – | 0% | – | – |

| SMILES | PHAKPA (F129L) Disease level (%) P2 at 16 ppm [1] | % PHAKPA (F129L) Disease level P2 at 4 ppm [1] | % PHAKPA (F129L) Disease level P2 at 16 ppm [1] | PHAKPA (F129L) Disease level (%) P6 at 16 ppm [2] | % PHAKPA (F129L) Disease level P6 at 4 ppm [2] | % PHAKPA (F129L) Disease level P6 at 16 ppm [2] | PHAKPA (F129L) Disease level (%) P2 at 4 ppm [1] | PHAKPA (F129L) Disease level (%) P6 at 4 ppm [2] |
| --- | --- | --- | --- | --- | --- | --- | --- | --- |
| CO/N=C(/C(=O)OC)c1cccc(C)c1CO/N=C(\C)c1ccccc1 [Ex. 30] | 2% | 53% | 1% | 1% | 77% | 2% | – | – |
| CNC(=O)/C(=N/OC)c1cccc(C)c1CO/N=C(\C)c1ccccc1 [Ex. 31] | – | 0% | 0% | – | 4% | 0% | 0% | 12% |
| CO/N=C(/C(=O)OC)c1cccc(C)c1CO/N=C(\C)c1ccccc1C(F)(F)F [Ex. 36] | 47% | 100% | 42% | 57% | 100% | 43% | – | – |
| CO/N=C(/C(=O)OC)c1cccc(C)c1CO/N=C(\C)c1ccc(C(F)(F)F)cc1 [Ex. 37] | 0% | 40% | 3% | 0% | 40% | 2% | – | – |
| CO/N=C(/C(=O)OC)c1cccc(C)c1CO/N=C(\C)c1ccc(CC2COC2)cc1 [compound 82] | – | 87% | 57% | – | – | – | – | – |
| CNC(=O)/C(=N/OC)c1cccc(C)c1CO/N=C(\C)c1ccc(CC2COC2)cc1 [compound 83] | – | 97% | 73% | – | – | – | – | – |
| CNC(=O)/C(=N/OC)c1cccc(C)c1CO/N=C(\C)c1ccc(OC(F)(F)F)cc1Cl [compound 271] | – | 5% | 1% | – | – | – | – | – |
| CNC(=O)/C(=N/OC)c1cccc(C)c1CO/N=C(\C)c1cc(C(F)(F)F)ccc1C(F)(F)F [compound 272] | – | 60% | 8% | – | – | – | – | – |
| CNC(=O)/C(=N/OC)c1cccc(C)c1CO/N=C(\C)c1cc(C(F)(F)F)ccc1C [compound 273] | – | 60% | 3% | – | – | – | – | – |
| CCOc1ccccc1/C(C)=N/OCc1c(C)cccc1/C(=N\OC)C(=O)NC [compound 312] | – | 100% | 53% | – | – | – | – | – |
| CNC(=O)/C(=N/OC)c1cccc(C)c1CO/N=C(\C)c1ccccc1OCOC [compound 314] | – | 100% | 40% | – | – | – | – | – |
| CNC(=O)/C(=N/OC)c1cccc(C)c1CO/N=C(\C)c1ccccc1OC(C)C [compound 315] | – | 100% | 60% | – | – | – | – | – |
| CNC(=O)/C(=N/OC)c1cccc(C)c1CO/N=C(\C)c1ccccc1Oc1ccccc1 [compound 321] | – | 100% | 40% | – | – | – | – | – |
| CO/N=C(/C(=O)OC)c1cccc(C)c1CO/N=C(\C)c1cccc(OC(F)(F)F)c1 [drawing 936, reference compound] | – | – | – | – | – | – | 17% | – |
| CNC(=O)/C(=N/OC)c1cccc(C)c1CO/N=C(\OC)c1cccc(C)c1 [drawing 974, reference compound] | – | – | – | 45% | – | – | – | – |
| CO/N=C(/C(=O)OC)c1cccc(C)c1CO/N=C(\OC)c1cccc(C(F)(F)F)c1 [drawing 977, reference compound] | – | – | – | 23% | – | – | – | – |

Reference: patent US20230172204A1 (BASF SE, priority 2020, published 2023)
